The test system of series [1] is KG-1a. Put plainly: Antiproliferative activity against human KG1a cells assessed as reduction in cell viability incubated for 2 days by MTT assay. The series is classed as functional, cell-based. To be noted: 48 h. Background: Tetrazolium assays rely on reduction of a dye to a coloured formazan, in cell work by metabolically active cells.
Series [2] concerns MCF7. In words: Antiproliferative activity against human MCF7 cells assessed as reduction in cell viability incubated for 2 days by MTT assay. It is filed as functional, cell-based. Particulars: MCF7, 48 h.
The test system of series [3] is MDA-MB-231. Put plainly: Inhibition of cell migration of human MDA-MB-231 cells at 5.40 uM incubated for 48 hrs by scratch wound healing assay. It is filed as functional, cell-based.
The subject of series [4] is MDA-MB-231. In words: Antiproliferative activity against human MDA-MB-231 cells assessed as reduction in cell viability incubated for 2 days by MTT assay. Particulars: MDA-MB-231, 48 h. It is filed as functional, cell-based.
The test system of series [5] is SUM-159-PT. In words: Antiproliferative activity against human SUM159 cells assessed as reduction in cell viability incubated for 2 days by MTT assay. It is filed as functional, cell-based. Particulars: 48 h.
The subject of series [6] is MCF7. In words: Inhibition of colony formation in human MCF7 cells at 2.83 uM incubated for 14 days with replacement of medium for every 3 or 4 days by crystal violet staining based visual analysis relative to control. The series is classed as functional.
The subject of series [7] is SK-BR-3. Put plainly: Antiproliferative activity against human SKBR3 cells assessed as reduction in cell viability incubated for 2 days by MTT assay. The series is classed as functional, cell-based. Particulars: SK-BR-3, 48 h.
Series [8] concerns SUM-159-PT. In words: Inhibition of mammosphere formation in human SUM159 cells assessed as reduction in number of mammosphere at 2 uM incubated for 10 days by microscopic analysis. It is filed as functional.
Series [9] concerns MCF7. Put plainly: Inhibition of colony formation in human MCF7 cells at 0.37 uM incubated for 14 days with replacement of medium for every 3 or 4 days by crystal violet staining based visual analysis relative to control. The series is classed as functional.
Series [10] has as its system SUM-159-PT. In words: Inhibition of mammosphere formation in human SUM159 cells assessed as reduction in number of mammosphere at 1 uM incubated for 10 days by microscopic analysis. It is filed as functional.
Series [11] has as its system MDA-MB-231. Put plainly: Inhibition of cell migration of human MDA-MB-231 cells incubated for 48 hrs by scratch wound healing assay. The series is classed as functional, cell-based.
Series [12] deals with MCF7. In words: Potency index, ratio of IC50 of TFP to IC50 of compound for antiproliferative activity against human MCF7 cells assessed as reduction in cell viability incubated for 2 days by MTT assay. The series is classed as functional.
The subject of series [13] is MCF7. Put plainly: Inhibition of colony formation in human MCF7 cells incubated for 14 days with replacement of medium for every 3 or 4 days by crystal violet staining based visual analysis. It is filed as functional, cell-based.
Series [14] concerns the target Transcription factor p65 (Homo sapiens) (UniProt Q04206). In words: Inhibition of LPS-stimulated NF-kappaB-p65 in human MDA-MB-231 cells incubated for 24 hrs by dual luciferase reporter gene assay. The series is classed as cell-based. For orientation: Reporter assays use an easily measured gene product as a stand-in for the process of interest.
The subject of series [15] is SUM-159-PT. In words: Potency index, ratio of IC50 of TFP to IC50 of compound for antiproliferative activity against human SUM159 cells assessed as reduction in cell viability incubated for 2 days by MTT assay. It is filed as functional.
Series [16] has as its system SUM-159-PT. Put plainly: Inhibition of mammosphere formation in human SUM159 cells incubated for 10 days by microscopic analysis. The series is classed as functional, cell-based.
In series [17] the test system is SUM-159-PT. Put plainly: Inhibition of mammosphere formation in human SUM159 cells assessed as reduction in number of mammosphere at 0.5 uM incubated for 10 days by microscopic analysis. The series is classed as functional.
Series [18] is described as follows: Toxicity in zebra fish assessed as survival rate at 250 uM observed for 24 hrs. Also on record: species or system Danio rerio. Particulars: zebrafish.
In series [19] the test system is MDA-MB-231. In words: Downregulation of NF-kappaB-p65 expression in human MDA-MB-231 cells incubated for 48 hrs by Western blot analysis. The series is classed as functional, cell-based. On the technique in general: In western blotting, separated proteins are transferred to a membrane and probed.
The subject of series [20] is MCF7. In words: Inhibition of colony formation in human MCF7 cells at 0.18 uM incubated for 14 days with replacement of medium for every 3 or 4 days by crystal violet staining based visual analysis relative to control. The series is classed as functional.
Series [21] has as its system MCF7. In words: Inhibition of colony formation in human MCF7 cells at 0.74 uM incubated for 14 days with replacement of medium for every 3 or 4 days by crystal violet staining based visual analysis relative to control. It is filed as functional.
Series [22] concerns the target Transcription factor p65 (Homo sapiens) (UniProt Q04206). Put plainly: Inhibition of LPS-stimulated NF-kappaB-p65 in human MDA-MB-231 cells at 0.40 and 0.80 uM incubated for 24 hrs by dual luciferase reporter gene assay. The series is classed as cell-based.
Series [23] deals with MDA-MB-231. In words: Inhibition of cell migration of human MDA-MB-231 cells at 0.40 and 0.80 uM incubated for 48 hrs by scratch wound healing assay. The series is classed as functional, cell-based.
The test system of series [24] is MCF7. Put plainly: Inhibition of colony formation in human MCF7 cells at 0.20 uM incubated for 14 days with replacement of medium for every 3 or 4 days by crystal violet staining based visual analysis relative to control. The series is classed as functional.

Data on three molecules can be found in ChEMBL document CHEMBL4342417, “Design, synthesis and evaluation of novel phenothiazine derivatives as inhibitors of breast cancer stem cells” (Eur J Med Chem, 2019).

Active and inactive are the calls of the source. The rule behind the calls is not given here.

Chain of Transcription factor p65 (Homo sapiens) (Q04206 whole entry): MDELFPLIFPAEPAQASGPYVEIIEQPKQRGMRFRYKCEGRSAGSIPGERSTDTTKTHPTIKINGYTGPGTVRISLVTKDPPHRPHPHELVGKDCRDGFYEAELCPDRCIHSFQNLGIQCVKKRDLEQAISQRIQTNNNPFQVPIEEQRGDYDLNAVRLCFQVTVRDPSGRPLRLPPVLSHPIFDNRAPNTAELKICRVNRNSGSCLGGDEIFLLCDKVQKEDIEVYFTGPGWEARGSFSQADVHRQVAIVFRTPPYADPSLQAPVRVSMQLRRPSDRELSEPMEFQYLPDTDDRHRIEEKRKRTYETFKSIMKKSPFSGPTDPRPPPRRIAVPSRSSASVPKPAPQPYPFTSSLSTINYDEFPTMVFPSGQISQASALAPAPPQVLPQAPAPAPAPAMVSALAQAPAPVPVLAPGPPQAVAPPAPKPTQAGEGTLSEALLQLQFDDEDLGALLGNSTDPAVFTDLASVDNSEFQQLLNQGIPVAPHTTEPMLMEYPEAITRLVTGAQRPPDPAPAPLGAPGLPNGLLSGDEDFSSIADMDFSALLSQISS

The IC50 is the concentration that gives 50% inhibition. In general, inhibition refers to the drop in the measured response relative to a control, in per cent. As to `CN1CCN(CCCN2c3ccccc3Sc3ccc(C(F)(F)F)cc32)CC1` [TRIFLUOPERAZINE], the half-inhibitory concentration (IC50) in series [1] stood at 4.58 µM; in series [2], 11.3 µM; in series [4] it was 21.6 µM; in series [5], 17 µM; in series [7], 15.9 µM. For the same molecule, the inhibition result in [3] is “Active”. Besides, in series [6], the inhibition at 2.83 µM came out at 63.8%. The Activity in [8] is listed as 12.
For the molecule `O=C(CCC(=O)N1CCN(CCCN2c3ccccc3Sc3ccccc32)CC1)OCCCCOc1no[n+]([O-])c1S(=O)(=O)c1ccccc1`, at 0.37 µM the inhibition in [9] was 33.1%. Moreover, the Activity in series [10] was 8; in series [17], 19; in [19], “Dose-dependent effect”; in series [8], 1. The inhibition entry in series [11], in [13], in [14] and in series [16] was “Dose-dependent effect” throughout. Also, the “Ratio IC50” value is given as 4 - 13 in series [12] and 6 - 15 in series [15]. In addition, the IC50 in series [1] was found to be 1.63 µM; in [2], 2.94 µM; in series [4] it was 11.2 µM; in series [5], 1.63 µM; in [7] it was 13.6 µM. Moreover, in [18], the survival at 24 h, 250 µM stood at 64.5%. This molecule also registered an inhibition at 0.18 µM in [20] of 64.4%. Moreover, in series [21], the inhibition at 0.74 µM is 11.6%.
`O=C(CCC(=O)N1CCN(CCCN2c3ccccc3Sc3ccccc32)CC1)OCCOc1no[n+]([O-])c1S(=O)(=O)c1ccccc1`: the inhibition result in series [22] and in series [23] was “Active” in each case. For the same molecule, the Activity in series [10] is 2; in series [17], 8; in [19], “Dose-dependent effect”; in series [8], 1. For the same molecule, the inhibition entry in series [13] and in [16] was “Dose-dependent effect” throughout. Besides, the IC50 is 1.78 µM in [1]; 3.23 µM in series [2]; 1.6 µM in series [4]; 1.78 µM in [5]; 2.22 µM in series [7]. Further, the inhibition at 0.2 µM in series [24] was 10.3%. For the same molecule, the survival at 24 h, 250 µM in series [18] was 51.6%.
